{"source": "the OPERA property sets (Mansouri et al. 2018)", "data": [{"conditions": "not given", "units": {"boiling point": "°C", "melting point": "°C"}, "values": [{"compound": "CCCC(=O)C(=O)O", "boiling point": 179, "melting point": 6.5}, {"compound": "CC(C)CC(C)N", "note": "(stereo not given)", "boiling point": 109, "log10 Henry constant (atm·m³/mol)": -4.51}, {"compound": "C[C@@H]1CC[C@H](O)C1", "boiling point": 148}, {"compound": "CC(=O)N1CCN(c2ccc(OC[C@H]3CO[C@](Cn4ccnc4)(c4ccc(Cl)cc4Cl)O3)cc2)CC1", "melting point": 146}, {"compound": "CSc1ccc2c(c1)N(CCC1CCCCN1C)c1ccccc1S2", "note": "(stereo not given)", "melting point": 73}, {"compound": "Cc1cc(C)c(O)c(C)c1", "boiling point": 220, "log10 vapour pressure (mmHg)": -1.76, "melting point": 73, "ready biodegradability": "not readily biodegradable"}, {"compound": "O=C(O)CN(CC(=O)O)CC(=O)O", "ready biodegradability": "not readily biodegradable"}, {"compound": "Nc1c(Cl)ccc(Cl)c1C(=O)O", "melting point": 155}, {"compound": "CC1CCC(=O)N1C", "note": "(stereo not given)", "boiling point": 217}, {"compound": "C1=CC=CCCC=C1", "boiling point": 146}, {"compound": "COc1cc(OC)nc(Sc2cccc(Cl)c2C(=O)[O-])n1.[Na+]", "melting point": 248}, {"compound": "CC(=O)OCc1ccco1", "boiling point": 179}, {"compound": "NC1CCCCCCC1", "boiling point": 190, "melting point": -48}, {"compound": "O=C(O)c1cc(F)c(F)c(F)c1", "melting point": 98}, {"compound": "CNC(=O)Oc1ccc(SC)c(C)c1", "melting point": 118}, {"compound": "c1coc(CNc2[nH]cnc3ncnc2-3)c1", "melting point": 266}, {"compound": "Cc1ccc(C)c(C=O)c1", "boiling point": 220}, {"compound": "Clc1ccc(Oc2ccccc2Cl)cc1", "log10 vapour pressure (mmHg)": -3.15}, {"compound": "CCOC(=O)c1cccc(O)c1", "melting point": 74, "ready biodegradability": "readily biodegradable"}, {"compound": "CC(C(=O)O)c1ccc(N2CC=CC2)c(Cl)c1", "note": "(stereo not given)", "melting point": 99}, {"compound": "CC(Br)C(Br)C(=O)O", "note": "(stereo not given)", "melting point": 87}, {"compound": "O=C1CCC(=O)CC1", "melting point": 78}, {"compound": "C(=N\\C(/N=C/c1ccco1)c1ccco1)/c1ccco1", "melting point": 117}, {"compound": "OCCC(O)CO", "note": "(stereo not given)", "boiling point": 312}, {"compound": "O=C(Cl)c1ccc(Cl)c(Cl)c1", "boiling point": 242, "melting point": 25}, {"compound": "CCCc1ccc(OC)cc1", "boiling point": 212}, {"compound": "OC(O)C(Br)(Br)Br", "melting point": 53.5}, {"compound": "CCc1ccccc1C", "boiling point": 165, "log10 biodegradation half-life (days)": 0.602, "log10 vapour pressure (mmHg)": 0.417}, {"compound": "CCNC(N)=O", "melting point": 92.5}, {"compound": "C#CCBr", "boiling point": 89, "log10 Henry constant (atm·m³/mol)": -2.95}, {"compound": "OB(O)c1ccc(Cl)cc1", "melting point": 286}, {"compound": "C=CCC(=C)C", "boiling point": 56}, {"compound": "CC(C)OC(=O)C=CC(=O)OC(C)C", "boiling point": 280, "melting point": 2.1}, {"compound": "CC(=O)N(c1ccccc1)c1ccccc1", "melting point": 103}, {"compound": "CN1C(=O)C=CC1=O", "melting point": 95}, {"compound": "Cc1cc(C=O)ccc1O", "melting point": 119}, {"compound": "CCOc1cc(NC(C)=O)ccc1C(=O)OC", "melting point": 148}, {"compound": "CC(C)[C@H]1CC[C@]2(C)C[C@H](O)[C@]3(C)CC[C@]12O3", "melting point": 114}, {"compound": "O=[N+]([O-])c1c(O)ccc2ccccc12", "melting point": 104}, {"compound": "CSCc1ccccc1", "boiling point": 210, "melting point": -30}, {"compound": "COC(=O)c1c[nH]c2ccccc12", "melting point": 150}, {"compound": "OCCCCCCCCCCl", "melting point": 28}, {"compound": "CN(C)CCc1ccc(O)cc1", "melting point": 118}, {"compound": "CCN(CC)Cc1cccnc1", "log10 vapour pressure (mmHg)": -2.37}, {"compound": "CC(C)Oc1cccc(NC(=O)c2ccccc2C(F)(F)F)c1", "log10 vapour pressure (mmHg)": -7.31, "melting point": 104}, {"compound": "FCCCCCl", "boiling point": 115}, {"compound": "CN(C)c1ccc(C(=O)O)cc1", "melting point": 242}, {"compound": "NC(=O)/C=C/C(=O)[O-]", "melting point": 172}, {"compound": "COC(=O)C1(S(=O)(=O)c2ccc(Br)cc2)CCC1", "melting point": 95}, {"compound": "C[N+](C)(C)c1ccccc1.[I-]", "melting point": 224}, {"compound": "COc1ccccc1N=Nc1c(O)ccc2ccccc12", "melting point": 183}, {"compound": "O=[N+]([O-])c1cc(C(F)(F)F)cc([N+](=O)[O-])c1Cl", "melting point": 57}, {"compound": "CC(C)CCN", "boiling point": 96}, {"compound": "O=C(O)CCl", "boiling point": 189, "log10 Henry constant (atm·m³/mol)": -8.03, "log10 vapour pressure (mmHg)": -1.19, "melting point": 63, "ready biodegradability": "readily biodegradable"}, {"compound": "CCCC(=O)CCC", "boiling point": 144, "log10 vapour pressure (mmHg)": 0.787, "melting point": -33}, {"compound": "CC(C)Cl", "boiling point": 35.7, "log10 vapour pressure (mmHg)": 2.71, "melting point": -117}, {"compound": "CC1CCC(=O)CC1", "boiling point": 170, "log10 vapour pressure (mmHg)": 0.176, "melting point": -40.6}, {"compound": "c1ccc2c(c1)ccc1nc3ccc4ccccc4c3cc12", "melting point": 216}, {"compound": "CCCCc1ccc(C(=O)O)nc1", "melting point": 97}, {"compound": "O=C(O)c1c(Cl)cc(Cl)cc1Cl", "melting point": 162}, {"compound": "c1ccc(CN2CCOCC2)cc1", "boiling point": 260, "melting point": 194}, {"compound": "C1=Cc2cc3ccc(cc4nc(cc5ccc(cc1n2)[nH]5)C=C4)[nH]3", "melting point": 360}, {"compound": "C[Si](C)(C)O[Si](C)(C)O[Si](C)(C)O[Si](C)(C)O[Si](C)(C)O[Si](C)(C)C", "boiling point": 246, "log10 vapour pressure (mmHg)": -1.53, "melting point": -59}, {"compound": "O=C(O)CCI", "melting point": 81.5}, {"compound": "Clc1ccc2cc(Cl)c(Cl)c(Cl)c2c1", "log10 Koa": 8.35}, {"compound": "NNc1c(F)c(F)cc(F)c1F", "melting point": 92}, {"compound": "CCCCCCC(O)CCC", "note": "(stereo not given)", "boiling point": 210, "melting point": -11}, {"compound": "CN(C)C(=O)COC(=O)c1ccccc1", "melting point": 81.5}, {"compound": "FC(F)(F)C(F)(F)C(F)(F)C(F)(F)C(F)(F)C(F)(F)C(F)(F)C(F)(F)C(F)(F)I", "boiling point": 181}, {"compound": "COC(=O)[C@@H]1CCCN1C(=O)COC(=O)c1ccccc1", "melting point": 72.5}, {"compound": "NC1CC1", "boiling point": 50.5, "melting point": -35.4}, {"compound": "CCC(c1ccc2cc(OC)ccc2c1)C(C)(C)C(=O)O", "note": "(stereo not given)", "melting point": 140}, {"compound": "N#CCc1ccc(Br)cc1", "melting point": 48}, {"compound": "O=C(O)CNC(CO)(CO)CO", "melting point": 187}, {"compound": "CC(C)=CCC/C(C)=C/C=C/C(C)=C/C=C/C(C)=C/C=C/C=C(C)/C=C/C=C(C)/C=C/C=C(\\C)CCCC(C)(C)O", "melting point": 171}, {"compound": "CCC(CC)C(C)C(C)C", "note": "(stereo not given)", "boiling point": 162}, {"compound": "OCC(F)(F)C(F)(F)F", "boiling point": 82, "log10 Henry constant (atm·m³/mol)": -4.65, "log10 vapour pressure (mmHg)": 1.66}, {"compound": "CSc1ccc(C(=O)O)cc1", "melting point": 194}, {"compound": "C/C=C/C/C=C/CCC(=O)[C@H]1O[C@H]1C(N)=O", "melting point": 93.5}, {"compound": "CC(=O)Nc1ccc2c(c1)Cc1ccccc1-2", "boiling point": 303, "log10 Koc (L/kg)": 3.14, "melting point": 193}, {"compound": "CCOC(=O)c1ccc2ccccc2c1", "boiling point": 308, "melting point": 32}, {"compound": "O=[N+]([O-])OCC(CCl)O[N+](=O)[O-]", "note": "(stereo not given)", "boiling point": 192}, {"compound": "CCCC(=O)Nc1ccccc1", "log10 Koc (L/kg)": 1.71, "melting point": 97}, {"compound": "CCCCC(C)CC(C)C", "note": "(stereo not given)", "boiling point": 156}, {"compound": "C#CCCCCCCCCCCCCC", "boiling point": 268, "melting point": 10}, {"compound": "O=C(O)/C=C\\C(=O)O", "melting point": 130, "ready biodegradability": "readily biodegradable"}, {"compound": "C=C1CCC1=C", "boiling point": 64}, {"compound": "Cc1cccc([N+](=O)[O-])c1N", "melting point": 96}, {"compound": "O=C(O)C(c1ccc(Cl)cc1)c1ccc(Cl)cc1", "melting point": 168}, {"compound": "Oc1ccc2ccccc2c1-c1c(O)ccc2ccccc12", "melting point": 216}, {"compound": "c1cc[nH]c1", "boiling point": 130, "log10 Henry constant (atm·m³/mol)": -4.74, "log10 vapour pressure (mmHg)": 0.922, "melting point": -23.4, "ready biodegradability": "readily biodegradable"}, {"compound": "Nc1ccccc1I", "melting point": 56.5}, {"compound": "CC(Cl)CBr", "note": "(stereo not given)", "boiling point": 118}, {"compound": "Nc1cccc(-n2ccccc2=O)c1", "melting point": 183}, {"compound": "Cc1cc2c(cc1C)C(=O)c1ccccc1C2=O", "melting point": 211}, {"compound": "CCc1ccccc1Br", "boiling point": 199, "melting point": -67.9}, {"compound": "CC(=O)CCC(=O)OC(C)C", "boiling point": 209}, {"compound": "FC(F)=C(F)OC(F)(F)C(F)(F)C(F)(F)F", "ready biodegradability": "not readily biodegradable"}, {"compound": "CCC(C)CCC=C(C)C", "note": "(stereo not given)", "boiling point": 163}, {"compound": "O=S(=O)(O)OCCOc1ccc(Cl)cc1Cl", "melting point": 170}, {"compound": "C#CCN1C(=O)CN=C(c2ccccc2)c2cc(Cl)ccc21", "melting point": 141}, {"compound": "CCOCc1ccco1", "boiling point": 149}, {"compound": "CC(C)CN(CCO)CC(C)C", "boiling point": 214}, {"compound": "CC(C)COCC(C)C", "boiling point": 123, "log10 Koa": 3.4, "log10 vapour pressure (mmHg)": 1.19}, {"compound": "C=C(C(=O)O)c1ccccc1", "melting point": 106, "ready biodegradability": "readily biodegradable"}, {"compound": "ClC1CC2CCC1C2", "note": "(stereo not given)", "boiling point": 162, "melting point": -5}, {"compound": "CCC#N", "boiling point": 97.1, "log10 Henry constant (atm·m³/mol)": -4.43, "log10 Koa": 2.69, "log10 vapour pressure (mmHg)": 1.68, "melting point": -92.8}, {"compound": "O=C(O)CNC(=O)c1ccccc1O", "melting point": 168}, {"compound": "CCOc1ccccc1C(N)=O", "melting point": 133}, {"compound": "CCC1C=CCC1", "note": "(stereo not given)", "boiling point": 97.8}, {"compound": "N#CCc1ccc2ccccc2c1", "boiling point": 303, "melting point": 83}, {"compound": "CC(C)(C)Cl", "boiling point": 50.5, "melting point": -26, "ready biodegradability": "not readily biodegradable"}, {"compound": "CCCCCCN1CC(C(=O)OC)CC1=O", "note": "(stereo not given)", "melting point": 4}]}, {"conditions": "fish", "values": [{"compound": "Cc1cc(C)c(O)c(C)c1", "log10 BCF": 0.93, "log10 biotransformation half-life (days)": -1.3}, {"compound": "CC(C)Oc1cccc(NC(=O)c2ccccc2C(F)(F)F)c1", "log10 BCF": 1.29, "log10 biotransformation half-life (days)": -0.61}]}]}
